Experiments:
[1] = test system: LPS induced NF-κB dependent transcription; assay: LPS induced NF-κB dependent transcription in extracted organs of NF-κB:Luc mice (luciferase lysate assay); format: in vivo; conditions: 0.5 mg/kg LPS and GL1001 at 30 mg/1 g vs LPS alone (FIG. 6)
From the text: For luciferase assays, organs were extracted and snap frozen in liquid nitrogen. All tissue samples were placed in lysis buffer with inhibitors (Passive Lysis Buffer (Promega) and Complete Mini Protease Inhibitor Cocktail (Roche, Indianapolis, Ind.)), and were homogenized using a tissue homogenizer (Handishear, Hand-held homogenizer, VirTis, Gardiner, N.Y.). Tissue homogenates were centrifuged and clarified lysates were used for luminometer assays and western blots. For the luminometer assays, Luciferase Assay Substrate (Luciferase Assay System, Promega) was prepared as indicated by the manufacturer and placed in disposable cuvettes. […] Background luminescence readings were obtained and the background readings were subtracted from the luminescent data. Protein concentrations were determined using the BCA Protein Assay Kit (Pierce, Rockford, Ill.) following the manufacturer's protocols and analyzed using a VERSAmax tunable microplate reader and associated Softmax Pro version 3.1.2 software (Molecular Devices, Sunnyvale Calif.). The luminescence for each of the protein lysates was calculated as arbitrary units of light per microgram of protein. […]
GL1001 was further tested for in vivo anti-inflammatory activity by examining its effects on bacterial LPS induced NF-κB dependent transcription, in NF-κB:Luc mice. […] Luciferase signal was quantitated from several regions of interest. […]

[2] = test system: NF-κB dependent transcription in recombinant HeLa reporter cells; assay: TNFα-induced activation of NF-κB dependent transcription, luciferase reporter in HeLa cells; format: cell-based; conditions: TNFα 20 ng/ml, 6 hours
From the text: To test the ACE2 inhibitor GL1001 for anti-inflammatory activity relevant to IBD, effects of the compound on activation of NF-κB dependent transcription by TNFα were examined in recombinant reporter cells containing a construct with a luciferase reporter gene under control of NF-κB dependent regulatory sequences, thereby allowing detection of NF-κB dependent transcription by measuring reporter enzyme using a conventional luciferase activity assay based on detection of generated light.
In particular, HeLa cells (American Type Culture Collection) were grown in Dulbecco's modified Eagles medium (DMEM) supplemented with 10% fetal calf serum and transiently transfected with an NF-κB-luc construct (Stratagene, Inc.), as follows (with all incubation steps at 37 C unless otherwise indicated). Cells were seeded and grown to about 70% confluency in a 10 cm cell culture dish. Plasmid DNA (10 μg) was added to 1 ml serum free DMEM media in a tube. Fugene 6 transfection reagent (30 μl) (Roche) was then pipetted slowly into the tube and the contents were gently mixed by inversion. The mixture was incubated at room temperature for 15 minutes and then added dropwise to cells in one 10 cm dish. […] Bioluminescence was then measured using a Veritas luminometer (Turner BioSystems). […]

[3] = test system: activator protein-1 (AP-1); assay: In vivo basal reporter luciferase expression in AP-1:Luc mice; conditions: data not shown
[4] = test system: basal NF-κB dependent transcription; assay: In vivo basal NF-κB dependent transcription, abdominal imaging of NF-κB:Luc mice; conditions: 300 mg/kg subcutaneous, 4 hours; p<0.01
From the text: GL1001 was further tested for in vivo anti-inflammatory activity by examining its effects on basal levels of NF-κB dependent transcription in mice engineered in the germline with a construct containing an NF-κB enhancer linked to a luciferase gene (i.e., NF-κB:Luc mice), such that this NF-κB reporter construct is present in all cells of the mice.
More particularly, transgenic NF-κB:Luc mice were generated using three NF-κB response elements from the Igκ light chain promoter fused to a firefly luciferase gene as described by Carlsen et al. (2002) J. Immunol. 168:1441-1446. Pronuclear microinjection of purified construct DNA was used to generate transgenic founders in the C57BL/6 XCBA/J background. Founders were subsequently back crossed to the C57BL/6 albino background. […] Signal data were also quantitated and archived using the Living Image® software. Photons of light were quantitated using an oval region of interest (ROI) of varying sizes depending on the procedure, as described further below.
To test for in vivo effects of GL1001 on basal levels of NF-κB dependent transcription, male NF-κB:Luc mice were subjected to quantitative in vivo imaging of the abdominal area (using a fixed ROI of 2.76×3.7 cm) as described above, immediately before, and at 2, […]

[5] = test system: DSS-induced colitis; assay: DSS-induced colitis in Balb/c mice, Example 7; format: in vivo
Protocol: A study was designed with six groups of Balb/c mice: naïve control, DSS followed by vehicle, DSS followed by GL1001 30 mg/kg/day, DSS followed by GL1001 100 mg/kg/day, DSS followed by GL1001 300 mg/kg/day, and DSS followed by sulfasalazine 150 mg/kg/day. Administration of DSS was via drinking water, from day 1 to day 6 of the study. […] Administration of vehicle, GL1001 and sulfasalazine was subcutaneous, twice daily, from day 6 until termination of the study (day 16). Body weight of each animal was measured at days 1, 3 and 5 (pre-initiation of GL1001 or sulfasalazine treatment) and at days 7, 9, 11 and 13 (post-initiation of GL1001 or sulfasalazine treatment). On these same days, disease activity measurements were recorded, including: • (a) rectal prolapse (0=no prolapse, 1=partial prolapse, 2=moderate prolapse, 3=full prolapse); • (b) stool consistency (0=solid pellet, 1=semi-solid, 2=soft stool, 3=diarrhea); and • (c) fecal occult blood (0=no blood present, 1=occult blood, 2=gross blood). At termination of the study, colon length was determined and histological analysis was conducted as in Example 6.

[6] = test system: Crohn's disease; conditions: cited from earlier work
[7] = test system: NF-κB activity; conditions: at least in CD; cited from earlier work
[8] = test system: ulcerative colitis; conditions: 5 mg/kg infusions; cited from earlier work
[9] = after a single dose, 5 mg/kg infusion

CC(C)C[C@H](N[C@@H](Cc1cncn1Cc1cc(Cl)cc(Cl)c1)C(=O)O)C(=O)O [GL1001, (S,S)-2-[1-carboxy-2-[3-(3,5-dichlorobenzyl)-3H-imidazol-4-yl]-ethylamino]-4-methylpentanoic acid]
reduction of LPS induced NF-κB-dependent transcription in stomach [1]: about 37 fold
inhibition of TNFα induced activation of NF-κB dependent transcription ([2]; 8 nM): over 80%
maximal inhibition of TNFα induced activation of NF-κB dependent transcription ([2]; 0.2 μM): over 95%
effect on basal in vivo levels of reporter luciferase expression in AP-1:Luc mice [3]: no significant effect
inhibition of basal in vivo levels of NF-κB dependent transcription in abdominal ROI [4]: over 40%

O=C(O)c1cc(/N=N/c2ccc(S(=O)(=O)Nc3ccccn3)cc2)ccc1O [sulfasalazine]
reduction in colon length ([5]; sulfasalazine 150 mg/kg b.i.d. subcutaneous (FIG. 19)): inhibits reduction
distal colon inflammation score ([5]; sulfasalazine 150 mg/kg b.i.d. subcutaneous (FIG. 20)): reduces
distal colon crypt score ([5]; sulfasalazine 150 mg/kg b.i.d. subcutaneous (FIG. 21)): reduces
distal colon total histopathology score ([5]; sulfasalazine 150 mg/kg b.i.d. subcutaneous (FIG. 23)): reduces
stool consistency ([5]; sulfasalazine 150 mg/kg b.i.d. subcutaneous, day 7 (FIG. 17)): No significant effect
fecal occult blood ([5]; sulfasalazine 150 mg/kg b.i.d. subcutaneous, day 7 (FIG. 18)): reduces
percentage weight loss ([5]; sulfasalazine 150 mg/kg b.i.d. subcutaneous, day 9 (FIG. 15)): No significant effect
rectal prolapse ([5]; sulfasalazine 150 mg/kg b.i.d. subcutaneous, day 9 (FIG. 16)): reduces

Infliximab: anti-TNFα monoclonal antibody
induction of remission rate in CD [6, 9]: 50%
response rate in CD [6, 9]: 80%
patients in whom the fistula responds (closes), fistulizing CD ([6]; human, in vivo): 68%
patients who develop an abscess, fistulizing CD ([6]; human, in vivo): 12%
NF-κB activity [7]: decrease
response rates in UC [8]: 50-70%

From US7842709B2, “Method for treating inflammatory diseases of the digestive tract” (Ore Pharmaceuticals Inc., priority 2006, dated 2010)
